The record followed here is ChEMBL document CHEMBL4433219, “EC18 as a Tool To Understand the Role of HCN4 Channels in Mediating Hyperpolarization-Activated Current in Tissues” (ACS Med Chem Lett, 2019).

For experiment [1], the species on record is Cavia porcellus. The experiment in a line: Inhibition of HCN4 in guinea pig single sinoatrial node assessed as reduction in hyperpolarization activated current at 10 uM at holding potential of -120 mV by patch clamp assay relative to control. Background: Patch clamp records ionic current or voltage across a cell membrane.
Experiment [2] deals with Cardiac muscle of left ventricle. The experiment in a line: Effect on cardiac electrophysiological profile in Mongrel perfused dog heart left ventricular muscle stimulated at basic cycle length of 1000 milliseconds assessed as conduction time at 1 uM measured after 25 mins by glass capillary microelectrode based electrophysiology assay (reference value: 4.8 +/- 0.60 milliseconds). The format is functional, Canis lupus familiaris.

The test system is the same in experiment [3]. Description: Effect on cardiac electrophysiological profile in Mongrel perfused dog heart left ventricular muscle stimulated at basic cycle length of 1000 milliseconds assessed as Vmax at 1 uM measured after 25 mins by glass capillary microelectrode based electrophysiology assay (reference value: 244.6 +/- 30.87 V/s). The experiment is classed as functional, Canis lupus familiaris.

The test system is the same in experiment [4]. Description: Effect on cardiac electrophysiological profile in Mongrel perfused dog heart left ventricular muscle stimulated at basic cycle length of 1000 milliseconds assessed as action potential time duration at 90% of repolarization at 1 uM measured after 25 mins by glass capillary microelectrode based electrophysiology assay (reference value: 212.5 +/- 16.25 milliseconds). The experiment is classed as functional, Canis lupus familiaris.

Experiment [5] has the same test system. Description: Effect on cardiac electrophysiological profile in Mongrel perfused dog heart left ventricular muscle stimulated at basic cycle length of 1000 milliseconds assessed as action potential time duration at 50% of repolarization at 1 uM measured after 25 mins by glass capillary microelectrode based electrophysiology assay (reference value: 176 +/- 16.36 milliseconds). The format is functional, Canis lupus familiaris.

The test system is the same in experiment [6]. The experiment in a line: Effect on cardiac electrophysiological profile in Mongrel perfused dog heart left ventricular muscle stimulated at basic cycle length of 1000 milliseconds assessed as action potential time duration at 10% of repolarization at 10 uM measured after 25 mins by glass capillary microelectrode based electrophysiology assay (reference value: 69.9 +/- 10.84 milliseconds). The format is functional, Canis lupus familiaris.

The target in experiment [7] is T1, Potassium/sodium hyperpolarization-activated cyclic nucleotide-gated channel 4 (Mus musculus) (UniProt O70507).
T1 sequence (whole entry): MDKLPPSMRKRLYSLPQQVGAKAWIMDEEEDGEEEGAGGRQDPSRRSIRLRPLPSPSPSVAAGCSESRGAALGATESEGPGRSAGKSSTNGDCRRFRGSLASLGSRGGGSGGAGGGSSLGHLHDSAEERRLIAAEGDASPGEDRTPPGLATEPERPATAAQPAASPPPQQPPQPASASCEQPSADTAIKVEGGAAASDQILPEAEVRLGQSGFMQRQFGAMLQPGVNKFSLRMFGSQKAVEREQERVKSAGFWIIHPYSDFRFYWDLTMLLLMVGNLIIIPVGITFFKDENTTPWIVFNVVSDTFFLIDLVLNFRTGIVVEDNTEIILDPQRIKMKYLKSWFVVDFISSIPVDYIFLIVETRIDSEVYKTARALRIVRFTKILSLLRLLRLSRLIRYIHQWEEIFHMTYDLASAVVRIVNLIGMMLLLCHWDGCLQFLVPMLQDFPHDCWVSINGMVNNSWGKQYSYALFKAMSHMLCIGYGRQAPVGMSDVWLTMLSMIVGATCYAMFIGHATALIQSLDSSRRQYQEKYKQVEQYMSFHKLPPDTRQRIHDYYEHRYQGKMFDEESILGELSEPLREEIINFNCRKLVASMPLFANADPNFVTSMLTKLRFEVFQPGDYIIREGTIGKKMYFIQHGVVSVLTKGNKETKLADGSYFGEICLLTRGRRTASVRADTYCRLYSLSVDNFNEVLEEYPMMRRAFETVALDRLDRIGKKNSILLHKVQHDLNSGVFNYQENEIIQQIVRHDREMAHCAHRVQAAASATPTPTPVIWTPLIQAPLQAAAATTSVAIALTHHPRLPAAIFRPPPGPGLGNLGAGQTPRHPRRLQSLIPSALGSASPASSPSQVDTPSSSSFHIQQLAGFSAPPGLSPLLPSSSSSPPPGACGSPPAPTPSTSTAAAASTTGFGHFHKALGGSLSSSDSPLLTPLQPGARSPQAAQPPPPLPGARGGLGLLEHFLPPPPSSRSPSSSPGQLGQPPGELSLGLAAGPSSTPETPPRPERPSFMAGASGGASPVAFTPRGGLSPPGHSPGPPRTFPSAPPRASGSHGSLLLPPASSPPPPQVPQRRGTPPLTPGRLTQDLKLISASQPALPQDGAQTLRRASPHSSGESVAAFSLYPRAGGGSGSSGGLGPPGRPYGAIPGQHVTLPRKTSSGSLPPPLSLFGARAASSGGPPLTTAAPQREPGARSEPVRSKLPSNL
The experiment in a line: Inhibition of HCN4 in C57BL/6J mouse thalamocortical relay neuron assessed as reduction in hyperpolarization current at 30 uM at holding potential of -120 mV by whole-cell patch clamp assay relative to control.

Take `COc1ccc(CCN(C)[C@@H]2CCC[C@H](N3CCc4cc(OC)c(OC)cc4CC3=O)C2)cc1OC` (racemic): the figures for the inhibition in experiment [1] and in experiment [7] were 67% and 91.3%, respectively. Besides, the Time in experiment [2] was determined as 4.7 ms; in experiment [4], 204.9 ms; in experiment [5], 168.3 ms; in experiment [6], 55.7 ms. In addition, the Activity in experiment [3] stood at 232.9 V/s.

The inhibition is the drop in the measured response relative to a control, in per cent.
